Tests used:
[1] = biological target: T1, Recombinant human protein phosphatase-2Cα (PP2Cα) (Homo sapiens, UniProt P35813); assay: PP2Cα activity with pNPP as substrate; type: biochemical; conditions: varying concentrations of ZLN024
T1 construct: purchased Abcam (Cambridge, UK)
T1 sequence (P35813 1-382): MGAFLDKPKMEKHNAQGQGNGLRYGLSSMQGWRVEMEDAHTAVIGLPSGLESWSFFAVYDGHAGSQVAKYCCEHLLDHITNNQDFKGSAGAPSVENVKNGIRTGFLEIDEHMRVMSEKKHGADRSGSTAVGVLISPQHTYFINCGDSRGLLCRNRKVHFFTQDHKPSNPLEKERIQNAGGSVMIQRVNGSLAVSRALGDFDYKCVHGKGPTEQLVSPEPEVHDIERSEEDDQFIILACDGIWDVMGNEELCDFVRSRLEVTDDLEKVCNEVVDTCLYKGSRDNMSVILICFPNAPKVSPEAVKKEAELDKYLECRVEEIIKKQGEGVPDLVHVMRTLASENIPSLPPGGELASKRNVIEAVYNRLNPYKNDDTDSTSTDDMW
Method: Recombinant human protein phosphatase-2Cα (PP2Cα) was obtained from Abcam (Cambridge, UK). PP2Cα activity was measured using pNPP as a substrate. The activity was measured in a SpectraMAX 340 plate reader at 37°C and […] for 120 sec. The assay was carried out in a 96-well plate in a final volume of 100 µl containing 50 mmol/l Tris-HCl, pH 7.6, 2 mmol/l DTT, 10 mmol/l MnCl2 and 10 mmol/l pNPP; the PP2Cα enzyme concentration was 400nmol/l.

[2] = biological target: T2, AMPK α1(1–335) (Homo sapiens, UniProt Q13131); assay: Dephosphorylation of AMPK α1 truncation by PP2Cα; type: biochemical; design: dephosphorylation by PP2Cα on AMPK α1(1–394) and α1(1–335); conditions: Fig. S1B
T2 sequence (Q13131 10-344): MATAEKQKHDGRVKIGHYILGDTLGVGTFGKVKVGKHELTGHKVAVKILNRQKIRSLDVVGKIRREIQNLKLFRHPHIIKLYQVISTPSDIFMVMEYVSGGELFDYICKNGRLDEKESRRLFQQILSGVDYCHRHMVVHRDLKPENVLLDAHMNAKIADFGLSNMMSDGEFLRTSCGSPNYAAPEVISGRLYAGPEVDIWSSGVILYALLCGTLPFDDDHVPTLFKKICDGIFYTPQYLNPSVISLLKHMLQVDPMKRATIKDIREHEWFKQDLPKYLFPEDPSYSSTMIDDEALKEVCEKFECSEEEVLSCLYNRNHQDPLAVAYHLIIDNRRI
Method: (§1) The dephosphorylation of AMPK was performed as described previously, [24].

[3] = biological target: AMPK α1(1–394) (Homo sapiens, UniProt Q13131); assay: Dephosphorylation of AMPK α1 truncation by PP2Cα; type: biochemical; design: dephosphorylation by PP2Cα on AMPK α1(1–394) and α1(1–335); conditions: Fig. S1A
AMPK α1(1–394), sequence (Q13131 10-403): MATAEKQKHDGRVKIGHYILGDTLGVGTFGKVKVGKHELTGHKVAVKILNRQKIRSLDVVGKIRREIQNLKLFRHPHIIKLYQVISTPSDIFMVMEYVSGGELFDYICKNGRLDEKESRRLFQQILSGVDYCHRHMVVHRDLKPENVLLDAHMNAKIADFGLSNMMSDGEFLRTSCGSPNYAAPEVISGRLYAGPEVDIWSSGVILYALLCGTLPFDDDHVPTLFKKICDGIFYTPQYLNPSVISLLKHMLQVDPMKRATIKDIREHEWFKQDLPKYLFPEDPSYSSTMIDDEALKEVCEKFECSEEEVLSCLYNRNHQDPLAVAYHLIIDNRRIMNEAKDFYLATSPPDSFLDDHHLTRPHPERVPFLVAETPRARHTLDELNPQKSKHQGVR
Method: as §1

[4] = tested on: rat primary hepatocytes; assay: AMPK and ACC phosphorylation in rat primary hepatocytes; type: cell-based; conditions: 3 hr
From the text: (§2) These assays were described previously, [25].

[5] = biological target: T3, human AMPK α1(1–312) (Homo sapiens, UniProt Q13131); assay: SPA, constitutively active kinase domain; type: biochemical; conditions: various concentrations
T3 construct: the constitutively active kinase domain (KD) α1(1–312) in SPA assay; made in house
T3 sequence (Q13131 10-321): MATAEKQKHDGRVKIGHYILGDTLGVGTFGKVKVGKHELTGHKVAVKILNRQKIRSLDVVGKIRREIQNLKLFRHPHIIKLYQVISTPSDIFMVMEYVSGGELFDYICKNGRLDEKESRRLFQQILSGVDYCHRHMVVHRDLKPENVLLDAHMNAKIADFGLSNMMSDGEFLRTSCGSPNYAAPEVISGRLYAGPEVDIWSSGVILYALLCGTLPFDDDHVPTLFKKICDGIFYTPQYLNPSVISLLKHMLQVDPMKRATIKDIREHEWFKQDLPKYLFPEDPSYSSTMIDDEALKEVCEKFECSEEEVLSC
Method: (§3) Before the SPA assay, 200 nmol/l recombinant AMPK protein (α1β1γ1, α2β1γ1, α1β2γ1, α2β2γ1, α1(1–394), α1(1–335), α1(1–312)) was constructed, expressed, purified and fully phosphorylated as described previously. The SPA reactions were performed in 96-well plates in a final volume of 50 µl containing 20 mmol/l Tris-HCl, pH 7.5, 5 mmol/l MgCl2, 1 mmol/l DTT, 2 µmol/l biotin-SAMS, 2 µmol/l ATP and 7.4×10^3 Bq/well [γ-^33P]ATP. The reactions were initiated by the addition of 50 nmol/l recombinant AMPK protein to the reaction solutions, followed by incubation at 30°C for 2 hr. The reactions were then terminated by the addition of 40 µl of stop solution containing 80 µg streptavidin-coated SPA beads per well, 50 mmol/l EDTA and 0.1% Triton X-100 in PBS, pH 7.5, followed by incubation for 1 hr. Finally, 160 µl of suspension solution containing 2.4 mol/l CsCl, 50 mmol/l EDTA and 0.1% Triton X-100 in PBS, pH 7.5, was added to the reaction solution to suspend the SPA beads completely. The SPA signals were measured in a Wallac Microbeta plate counter (PerkinElmer, Waltham, MA, USA) 30 min later.

[6] = tested on: HeLa cells; assay: AMPK and ACC phosphorylation in HeLa cells deficient in LKB1; type: cell-based
From the text: as §2

[7] = tested on: rat primary hepatocytes; assay: Fatty acid synthesis ([14C] acetate incorporation) in rat primary hepatocytes; type: cell-based; conditions: insulin 10 nmol/l, 24 hr exposure
Method: Fatty acid synthesis in rat primary hepatocytes was assayed by measuring [^14C] acetate incorporation into lipids. Rat hepatocytes were treated for 20 hr with ZLN024 at the concentrations described in FBS-free DMEM with or without 10 nmol/l insulin, followed by 4 hr incubation in fresh medium containing 0.1 µCi/ml sodium [^14C] acetate (3.7×103 Bq/ml). Thereafter, cells were washed three times by ice-cold PBS and analyzed as previously described, [22].

[8] = biological target: T2, AMPK α1(1–335); assay: SPA, inactive α1 subunit truncation; type: biochemical; design: α1(1–394), α1(1–335), α1(1–312); made in house
Method: as §3

Cc1ccc(OCCSc2ncccn2)c(Br)c1 [ZLN024]
effect on PP2Cα activity [1]: no significant inhibition | effect on dephosphorylation of AMPK α1(1–335) by PP2Cα [2]: did not affect the dephosphorylation | effect on dephosphorylation of AMPK α1(1–394) by PP2Cα [3]: did not affect the dephosphorylation | phosphorylation of ACC [4]: obviously increased | phosphorylation of AMPK [4]: slightly activated | effect on activity of constitutively active kinase domain α1(1–312) [5]: did not induce significant changes | phosphorylation of AMPK and ACC ([6]; 3 hr, concentration-dependent): stimulated | time to peak of AMPK and ACC phosphorylation ([6]; ZLN024 20 µmol/l): ≤ 30 min | time to start of increase of AMPK and ACC phosphorylation ([6]; ZLN024 20 µmol/l): ≤ 15 min | insulin stimulated synthesis of fatty acid [7]: significantly decreased | maximal activation of α1(1–335) [8]: 2.8 fold | EC50 ([8]; read-out: EC50, activation of α1(1–335)): 2.23 µM

From PMC3748009, “Novel Small-Molecule AMP-Activated Protein Kinase Allosteric Activator with Beneficial Effects in db/db Mice” (PLoS ONE, 2013)
